Data on 29 compounds can be found in patent publication US12435060B2, “Acylamino bridged heterocyclic compound, and composition and application thereof” (BEIJING SCITECH-MQ PHARMACEUTICALS LIMITED, priority 2019, dated 2025).

This experiment relates to HT29 cells. The experiment is described as follows: Inhibition of cell necrosis (CCK8 method), induced programmed necrosis of HT29 cells. Format: cell-based. The settings on record: Homo sapiens, HT-29; rescue from necrosis induced by TNF-α 20 ng/mL, AT-406 1 μM, Z-VAD-FMK 20 μM; 16-20 hours; CCK-8, OD 450 nm. As to the method:
Assay Example 2. Assay Method for Compounds Inhibiting Cell Necrosis (CCK8 Method)
In this assay example 2, under the condition of inducing programmed cell necrosis, different concentrations of the test compounds were added to test the IC50 of the rescue effect of the test compounds on the programmed necrosis.
• Compounds: Dissolved in DMSO to make a 10 mM solution; • TNF-α: The initial concentration was 100 μg/mL; • Z-VAD-FMK: Dissolved in DMSO to make a 10 mM solution; • AT-406: Dissolved in DMSO to make a 10 mM solution. I. Experimental Steps • 1) Compound dilution: All test compounds were dissolved in DMSO to prepare a 10 mM stock solution, and the first concentration gradient dilution of the test compounds was completed in DMSO. The gradient dilution factor was 4 times and 9 concentration gradients were made; A 40-fold overall dilution of all compounds was completed in the cell culture medium, and the resulting compound was 10× compound, which will be added to the wells of the 96-well plate containing cells, so that the final cell culture medium was 1× the designed final concentration. The general drug design is 9 concentration gradients, of which the highest final concentration is 25000 nM, the lowest concentration after 4-fold dilution of 9 concentrations is 0.38 nM, and the final concentration of DMSO in all wells is 0.25%. The compound dilution process is shown in FIG. 3. • 2) HT 29 cells in good growth condition were selected, trypsinized, the cells was collected by centrifugation, resuspended in McCOY's 5A complete medium (containing 10% FBS) and counted, and the number of cells and survival rate were recorded. • 3) Cells were inoculated to the 60 wells in the middle of the 96-well culture plate at a density of 12000 cells/80 μL/well, surrounding wells were filled with sterile water, and incubated overnight. • 4) 10 μL of the 10× compound diluted with the medium was added to the assay wells, 10 μL of McCOY's 5A complete medium containing 2.5% DMSO was added to the inducer-free wells and the control wells, mixed and shaked, and incubated for 30 minutes. • 5) Then 10 μL of inducer mixture (TNF-α, AT-406, Z-VAD-FMK with the final concentration of 20 ng/mL, 1 μM, 20 μM) was added into the assay wells and control wells. 10 μL McCOY's 5A complete medium was added to wells without inducer. Cells were cultured in an incubator with 5% CO2, at 37° C. • 6) After culturing for 16-20 hours, 10 μL of CCK-8 reagent was added to each well, and incubated for about 2 hours; • 7) The OD value was read at 450 nm on the multi-function plate reader. • 8) Data processing: Inhibition rate of necrosis (%)=100*(X−B)/(A−B) • A: The OD values of the wells without inducer (containing cells, CCK-8, without compound and inducer); • […]: OD values of assay wells (containing cells, CCK-8, compound, inducer); • B: OD values of control wells (containing cells, CCK-8, inducer, without compound). Then the value were imported into Graphpad Prism5 software for curve fitting and the IC50 values were calculated.
(Formazan colour is commonly taken as a measure of viable cells.)

The structures appear in SMILES notation.

The IC50 is the midpoint of a concentration-inhibition curve. High values mean weaker potency in that assay, low ones greater potency in that assay.

On to `Cc1ccc(F)cc1-c1ccnc(NC(=O)c2nnc(Cc3ccccc3)[nH]2)c1` [Example 33, 5-benzyl-N-(4-(5-fluoro-2-methylphenyl)pyridin-2-yl)-4H-1,2,4-triazole-3-carboxamide], for which the IC50 fell in the range of 0.1 to 1 µM.
`Cc1ccc(Cl)cc1-c1ccnc(NC(=O)c2nnc(Cc3ccccc3)[nH]2)c1` [Example 34, 5-benzyl-N-(4-(5-chloro-2-methylphenyl)pyridin-2-yl)-4H-1,2,4-triazole-3-carboxamide] registered an IC50 of 0.1 to 1 µM.
`Cc1ccc(C#N)cc1-c1ccnc(NC(=O)c2nnc(Cc3ccccc3)[nH]2)c1` [Example 35, 5-benzyl-N-(4-(5-cyano-2-methylphenyl)pyridin-2-yl)-4H-1,2,4-triazole-3-carboxamide] yielded an IC50 not above 0.1 µM.
The result for `Cc1ccc(C(F)(F)F)cc1-c1ccnc(NC(=O)c2nnc(Cc3ccccc3)[nH]2)c1` [Example 36, 5-benzyl-N-(4-(2-methyl-5-(trifluoromethyl)phenyl)pyridin-2-yl)-4H-1,2,4-triazole-3-carboxamide] reads 0.1 to 1 µM.
As to `Cc1ccc(S(C)(=O)=O)cc1-c1ccnc(NC(=O)c2nnc(Cc3ccccc3)[nH]2)c1` [Example 37, 5-benzyl-N-(4-(2-methyl-5-(methylsulfonyl)phenyl)pyridin-2-yl)-4H-1,2,4-triazole-3-carboxamide], the IC50 lay within 0.1 to 1 µM.
With `O=C(Nc1cc(-c2cccc3c2OCC3)ccn1)c1nnc(Cc2ccccc2)[nH]1` [Example 38, 5-benzyl-N-(4-(2,3-dihydrobenzofuran-7-yl)pyridin-2-yl)-4H-1,2,4-triazole-3-carboxamide], the IC50 lay in the range of 1 to 10 µM.
The same measure for `O=C(Nc1cc(-c2cccc3c2CCC3)ccn1)c1nnc(Cc2ccccc2)[nH]1` [Example 39, 5-benzyl-N-(4-(2,3-dihydro-1H-inden-4-yl)pyridin-2-yl)-4H-1,2,4-triazole-3-carboxamide]: 1 to 10 µM; for `O=C(Nc1cc(-c2cccc3c2CCCO3)ccn1)c1nnc(Cc2ccccc2)[nH]1` [Example 40, 5-benzyl-N-(4-(chroman-5-yl)pyridin-2-yl)-4H-1,2,4-triazole-3-carboxamide]: 1 to 10 µM; for `O=C(Nc1cc(-c2cccc3c2OCO3)ccn1)c1nnc(Cc2ccccc2)[nH]1` [Example 41, N-(4-(benzo[d][1,3]dioxol-4-yl)pyridin-2-yl)-5-benzyl-4H-1,2,4-triazole-3-carboxamide]: more than 10 µM.
As for `O=C(Nc1cc(-c2cccc3c2OCCO3)ccn1)c1nnc(Cc2ccccc2)[nH]1` [Example 42, 5-benzyl-N-(4-(2,3-dihydrobenzo[b][1,4]dioxin-5-yl)pyridin-2-yl)-4H-1,2,4-triazole-3-carboxamide], the IC50 was 1 to 10 µM.
Turning to `O=C(Nc1cc(-c2cccc3c2CCCC3)ccn1)c1nnc(Cc2ccccc2)[nH]1` [Example 43, 5-benzyl-N-(4-(5,6,7,8-tetrahydronaphthalen-1-yl)pyridin-2-yl)-4H-1,2,4-triazole-3-carboxamide], the IC50 lay in the range of 1 to 10 µM.
Consider `Cc1ccc(C2CC2)cc1-c1ccnc(NC(=O)c2nnc(Cc3ccccc3)[nH]2)c1` [Example 45, 5-benzyl-N-(4-(5-cyclopropyl-2-methylphenyl)pyridin-2-yl)-4H-1,2,4-triazole-3-carboxamide], for which the IC50 fell in the range of 0.1 to 1 µM.
The result for `COc1ccc(C2CC2)cc1-c1ccnc(NC(=O)c2nnc(Cc3ccccc3)[nH]2)c1` [Example 46, 5-benzyl-N-(4-(5-cyclopropyl-2-methoxyphenyl)pyridin-2-yl)-4H-1,2,4-triazole-3-carboxamide] reads 1 to 10 µM; that for `O=C(Nc1cc(C2CCCC2)ccn1)c1nnc(Cc2ccccc2)[nH]1` [Example 47, 5-benzyl-N-(4-cyclopentylpyridin-2-yl)-4H-1,2,4-triazole-3-carboxamide], more than 10 µM.
The result for `O=C(Nc1cc(C2CCCCC2)ccn1)c1nnc(Cc2ccccc2)[nH]1` [Example 48, 5-benzyl-N-(4-cyclohexylpyridin-2-yl)-4H-1,2,4-triazole-3-carboxamide] reads more than 10 µM.
The result for `O=C(Nc1cc(C2CCOCC2)ccn1)c1nnc(Cc2ccccc2)[nH]1` [Example 49, 5-benzyl-N-(4-(tetrahydro-2H-pyran-4-yl)pyridin-2-yl)-4H-1,2,4-triazole-3-carboxamide] reads 1 to 10 µM.
`COc1ncc(C)cc1-c1ccnc(NC(=O)c2nnc(Cc3ccccc3)[nH]2)c1` [Example 50, 5-benzyl-N-(2-methoxy-5-methyl-[3,4′-bipyridin]-2′-yl)-4H-1,2,4-triazole-3-carboxamide] came in with an IC50 of 1 to 10 µM.
The same measure for `CCOc1ncc(C)cc1-c1ccnc(NC(=O)c2nnc(Cc3ccccc3)[nH]2)c1` [Example 51, 5-benzyl-N-(2-ethoxy-5-methyl-[3,4′-bipyridin]-2′-yl)-4H-1,2,4-triazole-3-carboxamide]: 1 to 10 µM; for `Cc1cnc(OC(C)C)c(-c2ccnc(NC(=O)c3nnc(Cc4ccccc4)[nH]3)c2)c1` [Example 52, 5-benzyl-N-(2-isopropoxy-5-methyl-[3,4′-bipyridin]-2′-yl)-4H-1,2,4-triazole-3-carboxamide]: more than 10 µM.
Turning to `CCOc1nc(-c2ccnc(NC(=O)c3nnc(Cc4ccccc4)[nH]3)c2)ccc1C` [Example 53, 5-benzyl-N-(6-ethoxy-5-methyl-[2,4′-bipyridin]-2′-yl)-4H-1,2,4-triazole-3-carboxamide], the IC50 was more than 10 µM.
The same measure for `COCCOc1nc(-c2ccnc(NC(=O)c3nnc(Cc4ccccc4)[nH]3)c2)ccc1C` [Example 54, 5-benzyl-N-(6-(2-methoxyethoxy)-5-methyl-[2,4′-bipyridin]-2′-yl)-4H-1,2,4-triazole-3-carboxamide]: more than 10 µM; for `COCCN(C)c1ccc(C)c(-c2ccnc(NC(=O)c3nnc(Cc4ccccc4)[nH]3)c2)c1` [Example 55, 5-benzyl-N-(4-(5-((2-methoxyethyl)(methyl)amino)-2-methylphenyl)pyridin-2-yl)-4H-1,2,4-triazole-3-carboxamide]: 0.1 to 1 µM.
The same measure for `CCOCCN(C)c1ccc(C)c(-c2ccnc(NC(=O)c3nnc(Cc4ccccc4)[nH]3)c2)c1` [Example 56, 5-benzyl-N-(4-(5-((2-ethoxyethyl)(methyl)amino)-2-methylphenyl)pyridin-2-yl)-4H-1,2,4-triazole-3-carboxamide]: 0.1 to 1 µM; for `Cc1ccc(N(C)CCCO)cc1-c1ccnc(NC(=O)c2nnc(Cc3ccccc3)[nH]2)c1` [Example 57, 5-benzyl-N-(4-(5-((3-hydroxypropyl)(methyl)amino)-2-methylphenyl)pyridin-2-yl)-4H-1,2,4-triazole-3-carboxamide]: 0.1 to 1 µM.
Consider `COCCCN(C)c1ccc(C)c(-c2ccnc(NC(=O)c3nnc(Cc4ccccc4)[nH]3)c2)c1` [Example 58, 5-benzyl-N-(4-(5-((3-methoxypropyl)(methyl)amino)-2-methylphenyl)pyridin-2-yl)-4H-1,2,4-triazole-3-carboxamide], for which the IC50 is 0.1 to 1 µM.
The same measure for `COCCCSc1ccc(C)c(-c2ccnc(NC(=O)c3nnc(Cc4ccccc4)[nH]3)c2)c1` [Example 59, 5-benzyl-N-(4-(5-(3-methoxypropylthio)-2-methylphenyl)pyridin-2-yl)-4H-1,2,4-triazole-3-carboxamide]: not above 0.1 µM; for `COc1ccc(C)nc1-c1ccnc(NC(=O)c2nnc(Cc3ccccc3)[nH]2)c1` [Example 60, 5-benzyl-N-(3-methoxy-6-methyl-[2,4′-bipyridin]-2′-yl)-4H-1,2,4-triazole-3-carboxamide]: more than 10 µM.
The same measure for `COc1cnc(C)cc1-c1ccnc(NC(=O)c2nnc(Cc3ccccc3)[nH]2)c1` [Example 61, 5-benzyl-N-(5′-methoxy-2′-methyl-[4,4′-bipyridin]-2-yl)-4H-1,2,4-triazole-3-carboxamide]: 1 to 10 µM; for `CCOc1ccc(C)nc1-c1ccnc(NC(=O)c2nnc(Cc3ccccc3)[nH]2)c1` [Example 62, 5-benzyl-N-(3-ethoxy-6-methyl-[2,4′-bipyridin]-2′-yl)-4H-1,2,4-triazole-3-carboxamide]: more than 10 µM.
